# Values joined by “and” are separate entries in the source; they are usually repeats but may differ in a detail not shown here. Equal values may be shown once. No end group written: not given here.
# Columns and labels:
# [1] = test system: male Duncan-Hartley guinea pigs; assay: In vivo efficiency in guinea pig spontaneous knee osteoarthritis, intra-articular injection, histological analysis; conditions: for cartilage thickness / sum of the scores representing the degradation of several structures in the joint (total scoring of degradation parameters): five month after intra-articular injection of 50 μl per knee; for cartilage thickness: * p<0.05; for sum of the scores representing the degradation of several structures in the joint (total scoring of degradation parameters): peptide 10^−7 M, vs control and hyaluronic acid alone
# Protocol: Peptide of the invention (corresponding to SEQ ID NO: 4) was dissolved at 2.5 mg/ml in water for injection (CDM Lavoisier) to make a stock solution conserved at −20° C. The syringe was prepared by aspiration of 50 μl of peptide work solution prepared just before use at 10^−7 M (other concentrations are tested) in NaCl 0.9% and kept on ice until use.
# The study was performed on male Duncan-Hartley guinea pigs (Harlan), whose particularity is to be affected with age of spontaneous and progressive degeneration of the knee that closely resembles knee osteoarthritis (OA) in humans. Seven 5-month-old animals (weighing 879 g.+/−58.1) were injected per group. Animals were treated in accordance with institutional animal care guidelines. Animals were anesthetized with an anesthesia module (Minerva) with a rapid induction device (4% isoflurane) and anesthesia was maintained using a specific device mask in guinea coaxial (2.5% isoflurane). 50 μl of the peptide of the invention or control—salt solution or Hyalgan® (10 mg/ml solution of MW 500-730 kDa hyaluronic—Laboratoire Expanscience, available in the market)—were injected on each hind legs of the animal into the joint space from the lateral side using a 29 G needle. This was followed by passive knee joint movements to facilitate the intra-articular distribution of the solution.
# Five month after injection, the two knee joints from each animal were fixed for 36 to 48 hours in 10% buffered formalin then kept in 70% ethanol and followed by decalcification in 15% EDTA in phosphate buffer. Paraffin sections (3-4 μm) of the central region of the joint were stained with haematoxylin and eosin for histological analyses of cartilage structure, namely: loss of cartilage matrix, cellular abnormalities, appearance of articular cartilage mineralization front, formation of osteophytes and synovial membrane (microscopy: Nikon 80i). A semi-quantitative modified Mankin histological grading system was used to evaluate OA severity (Kraus et al., The OARSI histopathology initiative recommendations for histological assessments of osteoarthritis in the Guinea Pig. Osteoarthritis Cartilage, 2010 (18 S3) S35-S52). The articular cartilage area was analyzed quantitatively by immunohistochemistry (Pastoureau et al., Cartilage, bone and synovial histomorphometry in animal models of osteoarthritis. Osteoarthritis Cartilage. 2010 October; 18 Suppl 3:S106-12). Sections of guinea pig knees were stained with monoclonal antibody (monoclonal anti-chicken mouse collagen II, 6B3 clone—reference MAB887/250, Millipore). The measurement of the total area of articular cartilage was performed with Color deconvolution H DAB and Siox and the measurement of joint height by ImageJ (“Fit Ellipse” module). Statistical analyzes of scoring and quantification results were performed using a Kruskal-Wallis test followed by Dunn's test using PRISM software.
# [2] = Raman scattering measurements of peptide conformation (stability of the peptide); assay type: physicochemical; conditions: in water, peptide 0.9 mM, with or without HA 1%
# Protocol: Peptide alone, at a concentration of 0.9 mM (2.5 mg/ml), was dissolved in a Millipore filter treated water. Peptide+HA solution consists of peptide dissolved at 0.9 mM in a solution of HA (1.8 MDa) at 1% (10 mg/ml) in water.
# Samples were placed in a suprasil quartz cell (5 mm path length) and excited by the 488 nm line of an Ar+ laser (Spectra Physics, CA, USA) with a ˜200 mW power at the sample. Scattered light at right angle was analyzed on a Jobin-Yvon T64000 (HORIBA Jobin-Yvon, France) in a single spectrograph configuration with a 1200 grooves per mm holographic grating and a holographic notch filter. Stokes Raman data were collected by means of a liquid nitrogen cooled CCD detection system (Spectrum One, Jobin-Yvon, France). The effective spectral slit width was set to ˜5 cm^−1. Each recorded spectrum corresponds to a total acquisition time of 1200 s. Buffer subtraction and smoothing of the observed Raman spectra could be performed using the GRAMS/AI package (Thermoage Galactic, MA, USA). The final presentation of these spectra was performed by means of SigmaPlot package (Systat Software Inc., CA, USA).
# [3] = listed as peptide of the invention
# [4] = five month after intra-articular injection, medial tibial surface of the knee, compared with sham (and HA)
sequence,measurement,setting,value
GTSDRVYEKLAGSKNFFWKTFTSS [SEQ ID NO: 4],cartilage thickness,[1],increased cartilage thickness
same,cartilage thickness,[1]; [3],increase in the thickness of the cartilage
same,sum of the scores representing the degradation of several structures in the joint (total scoring of degradation parameters),[1],significantly decreased degradation of cartilage structure
same,sum of the scores representing the degradation of several structures in the joint (total scoring of degradation parameters),[1]; [3],lowest
same,osteophytes scoring,"[1]; five month after intra-articular injection, ** p<0.001",decreased osteophytes scoring
same,type II Collagen content (staining),"[1]; five month after intra-articular injection, immunohistochemistry, compared with sham (and HA)",greater synthesis of type II collagen
same,cartilage structure scoring (cartilage structural damage),[1]; [4],lowest severity
same,proteoglycan content (proteoglycan loss),[1]; [4],lowest severity
same,secondary conformation / structure stability by Raman spectra,[2],unstable structure in water
same,secondary conformation / structure stability by Raman spectra,[2]; listed as peptide alone,Several (4) secondary conformations and 4 major bands
